According to ChEMBL document CHEMBL4507291 (2021):

Experiments:
[1] = target: Cyclin-G-associated kinase (Homo sapiens) (UniProt O14976)
[2] = target: Ribosomal protein S6 kinase alpha-2 (Homo sapiens) (UniProt Q15349)
[3] = target: Protein-tyrosine kinase 6 (Homo sapiens) (UniProt Q13882)
[4] = target: Phosphatidylinositol 5-phosphate 4-kinase type-2 beta (Homo sapiens) (UniProt P78356)
[5] = tested on: Serine/threonine-protein kinase B-raf (Homo sapiens), P15056 [V600E]
[6] = target: Tyrosine-protein kinase JAK1 (Homo sapiens) (UniProt P23458)
Tyrosine-protein kinase JAK1 (Homo sapiens), sequence (P23458 whole entry): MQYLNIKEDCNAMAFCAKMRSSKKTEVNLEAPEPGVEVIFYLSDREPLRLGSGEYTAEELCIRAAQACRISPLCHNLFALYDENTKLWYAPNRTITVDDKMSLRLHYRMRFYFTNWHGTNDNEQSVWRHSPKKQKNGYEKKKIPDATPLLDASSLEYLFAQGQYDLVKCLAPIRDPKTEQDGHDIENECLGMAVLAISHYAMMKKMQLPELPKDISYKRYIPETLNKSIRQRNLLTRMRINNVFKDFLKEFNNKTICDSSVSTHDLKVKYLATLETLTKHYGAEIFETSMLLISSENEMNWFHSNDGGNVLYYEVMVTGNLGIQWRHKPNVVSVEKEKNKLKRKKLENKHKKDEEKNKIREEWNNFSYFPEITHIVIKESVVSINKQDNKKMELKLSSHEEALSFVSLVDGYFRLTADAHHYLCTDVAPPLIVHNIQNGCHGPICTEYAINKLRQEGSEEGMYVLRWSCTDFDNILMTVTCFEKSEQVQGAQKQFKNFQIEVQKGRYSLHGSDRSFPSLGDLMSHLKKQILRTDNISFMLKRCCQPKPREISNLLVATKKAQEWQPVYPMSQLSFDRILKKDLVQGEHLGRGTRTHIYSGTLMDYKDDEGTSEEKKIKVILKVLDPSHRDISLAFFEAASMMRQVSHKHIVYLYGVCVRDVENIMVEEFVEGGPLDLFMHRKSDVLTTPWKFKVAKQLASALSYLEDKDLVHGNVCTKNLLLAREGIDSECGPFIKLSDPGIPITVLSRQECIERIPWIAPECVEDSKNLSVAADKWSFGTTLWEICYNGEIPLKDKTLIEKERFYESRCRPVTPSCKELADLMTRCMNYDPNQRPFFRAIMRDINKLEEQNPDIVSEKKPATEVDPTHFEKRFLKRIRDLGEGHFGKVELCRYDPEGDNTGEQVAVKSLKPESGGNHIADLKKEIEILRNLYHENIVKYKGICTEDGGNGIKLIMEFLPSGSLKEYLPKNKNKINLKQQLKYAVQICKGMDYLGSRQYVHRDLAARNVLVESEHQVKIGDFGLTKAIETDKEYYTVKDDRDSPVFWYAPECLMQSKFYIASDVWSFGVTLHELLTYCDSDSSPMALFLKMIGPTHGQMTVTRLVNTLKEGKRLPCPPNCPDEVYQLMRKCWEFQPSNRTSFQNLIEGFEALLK

[7] = target: T1, Alpha-1A adrenergic receptor (Homo sapiens) (UniProt P35348); conditions: Compound concentration 10.0 uM
T1 sequence (whole entry): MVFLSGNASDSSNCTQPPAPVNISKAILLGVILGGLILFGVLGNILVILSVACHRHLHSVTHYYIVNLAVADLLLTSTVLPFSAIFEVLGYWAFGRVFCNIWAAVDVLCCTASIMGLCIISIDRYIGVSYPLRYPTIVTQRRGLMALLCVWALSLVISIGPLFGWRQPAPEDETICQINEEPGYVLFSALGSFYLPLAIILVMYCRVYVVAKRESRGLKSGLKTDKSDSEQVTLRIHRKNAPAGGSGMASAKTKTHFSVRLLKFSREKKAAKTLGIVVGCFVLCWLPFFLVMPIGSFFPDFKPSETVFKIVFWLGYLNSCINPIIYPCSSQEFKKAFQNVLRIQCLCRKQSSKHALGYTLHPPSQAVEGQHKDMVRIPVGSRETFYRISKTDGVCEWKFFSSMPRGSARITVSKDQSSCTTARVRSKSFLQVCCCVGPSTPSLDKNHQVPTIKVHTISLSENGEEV

[8] = target: Mitogen-activated protein kinase kinase kinase kinase 5 (Homo sapiens) (UniProt Q9Y4K4)
Mitogen-activated protein kinase kinase kinase kinase 5 (Homo sapiens), sequence (Q9Y4K4 whole entry, looked up): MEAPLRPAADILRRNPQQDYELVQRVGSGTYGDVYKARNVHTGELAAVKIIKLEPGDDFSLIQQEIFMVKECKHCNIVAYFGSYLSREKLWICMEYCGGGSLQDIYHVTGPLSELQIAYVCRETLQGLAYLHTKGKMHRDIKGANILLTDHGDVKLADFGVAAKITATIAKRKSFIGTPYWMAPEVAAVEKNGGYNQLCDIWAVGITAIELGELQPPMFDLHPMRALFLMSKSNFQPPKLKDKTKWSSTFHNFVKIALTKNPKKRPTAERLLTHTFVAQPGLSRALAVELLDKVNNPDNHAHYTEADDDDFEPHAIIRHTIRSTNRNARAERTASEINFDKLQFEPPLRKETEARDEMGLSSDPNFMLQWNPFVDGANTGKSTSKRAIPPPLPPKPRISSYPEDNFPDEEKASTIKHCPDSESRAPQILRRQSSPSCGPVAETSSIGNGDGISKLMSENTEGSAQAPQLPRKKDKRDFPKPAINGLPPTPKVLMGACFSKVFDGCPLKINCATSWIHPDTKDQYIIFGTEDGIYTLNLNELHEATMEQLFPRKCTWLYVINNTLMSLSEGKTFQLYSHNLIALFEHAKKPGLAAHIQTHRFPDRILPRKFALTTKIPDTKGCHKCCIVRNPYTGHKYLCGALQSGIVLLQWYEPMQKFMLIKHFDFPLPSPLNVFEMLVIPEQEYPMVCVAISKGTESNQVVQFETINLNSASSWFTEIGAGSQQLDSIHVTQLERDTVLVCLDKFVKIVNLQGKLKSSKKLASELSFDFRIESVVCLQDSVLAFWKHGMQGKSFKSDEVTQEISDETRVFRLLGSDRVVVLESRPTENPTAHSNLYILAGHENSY

[9] = target: Ephrin type-A receptor 5 (Homo sapiens) (UniProt P54756)
[10] = target: T2, Serine/threonine-protein kinase 17A (Homo sapiens) (UniProt Q9UEE5)
T2 sequence (whole entry): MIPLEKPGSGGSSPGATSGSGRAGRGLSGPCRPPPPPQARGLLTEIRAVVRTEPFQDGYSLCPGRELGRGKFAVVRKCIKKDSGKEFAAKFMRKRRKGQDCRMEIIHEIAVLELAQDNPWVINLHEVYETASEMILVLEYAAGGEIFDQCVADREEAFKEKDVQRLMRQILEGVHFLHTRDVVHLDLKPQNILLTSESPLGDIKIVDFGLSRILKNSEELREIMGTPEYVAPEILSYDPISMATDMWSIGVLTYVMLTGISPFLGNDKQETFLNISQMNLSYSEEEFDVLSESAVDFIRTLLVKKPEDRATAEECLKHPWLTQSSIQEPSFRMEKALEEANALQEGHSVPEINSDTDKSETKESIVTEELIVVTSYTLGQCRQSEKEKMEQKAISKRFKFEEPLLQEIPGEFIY

[11] = target: Ephrin type-A receptor 4 (Homo sapiens) (UniProt P54764)
Ephrin type-A receptor 4 (Homo sapiens), sequence (P54764 whole entry): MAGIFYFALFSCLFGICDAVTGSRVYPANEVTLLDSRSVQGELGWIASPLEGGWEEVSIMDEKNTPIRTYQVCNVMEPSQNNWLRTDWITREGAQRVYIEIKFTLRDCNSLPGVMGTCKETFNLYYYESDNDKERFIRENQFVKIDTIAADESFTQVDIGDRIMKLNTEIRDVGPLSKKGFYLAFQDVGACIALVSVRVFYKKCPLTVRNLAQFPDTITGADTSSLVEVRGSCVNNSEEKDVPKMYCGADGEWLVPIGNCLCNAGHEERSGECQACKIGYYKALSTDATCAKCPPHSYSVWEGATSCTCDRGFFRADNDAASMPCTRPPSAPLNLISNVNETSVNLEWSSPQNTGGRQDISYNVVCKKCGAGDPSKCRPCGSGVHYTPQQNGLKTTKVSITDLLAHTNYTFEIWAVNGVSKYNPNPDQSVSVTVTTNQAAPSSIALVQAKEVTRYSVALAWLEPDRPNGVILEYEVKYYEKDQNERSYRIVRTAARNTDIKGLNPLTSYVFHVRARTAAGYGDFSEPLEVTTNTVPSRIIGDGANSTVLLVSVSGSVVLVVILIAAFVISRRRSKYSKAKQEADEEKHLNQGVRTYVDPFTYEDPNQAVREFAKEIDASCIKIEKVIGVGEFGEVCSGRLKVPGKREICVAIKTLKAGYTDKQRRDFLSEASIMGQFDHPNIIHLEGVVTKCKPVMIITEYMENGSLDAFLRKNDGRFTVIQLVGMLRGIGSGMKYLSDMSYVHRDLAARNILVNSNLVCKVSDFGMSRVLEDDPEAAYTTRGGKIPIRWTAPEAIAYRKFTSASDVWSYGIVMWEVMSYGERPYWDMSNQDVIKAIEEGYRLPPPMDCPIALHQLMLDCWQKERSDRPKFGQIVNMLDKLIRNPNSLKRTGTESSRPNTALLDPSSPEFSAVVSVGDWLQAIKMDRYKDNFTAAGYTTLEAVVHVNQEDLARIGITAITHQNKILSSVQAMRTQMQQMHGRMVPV

[12] = target: T3, Beta-adrenergic receptor kinase 1 (Homo sapiens) (UniProt P25098)
T3 sequence (whole entry): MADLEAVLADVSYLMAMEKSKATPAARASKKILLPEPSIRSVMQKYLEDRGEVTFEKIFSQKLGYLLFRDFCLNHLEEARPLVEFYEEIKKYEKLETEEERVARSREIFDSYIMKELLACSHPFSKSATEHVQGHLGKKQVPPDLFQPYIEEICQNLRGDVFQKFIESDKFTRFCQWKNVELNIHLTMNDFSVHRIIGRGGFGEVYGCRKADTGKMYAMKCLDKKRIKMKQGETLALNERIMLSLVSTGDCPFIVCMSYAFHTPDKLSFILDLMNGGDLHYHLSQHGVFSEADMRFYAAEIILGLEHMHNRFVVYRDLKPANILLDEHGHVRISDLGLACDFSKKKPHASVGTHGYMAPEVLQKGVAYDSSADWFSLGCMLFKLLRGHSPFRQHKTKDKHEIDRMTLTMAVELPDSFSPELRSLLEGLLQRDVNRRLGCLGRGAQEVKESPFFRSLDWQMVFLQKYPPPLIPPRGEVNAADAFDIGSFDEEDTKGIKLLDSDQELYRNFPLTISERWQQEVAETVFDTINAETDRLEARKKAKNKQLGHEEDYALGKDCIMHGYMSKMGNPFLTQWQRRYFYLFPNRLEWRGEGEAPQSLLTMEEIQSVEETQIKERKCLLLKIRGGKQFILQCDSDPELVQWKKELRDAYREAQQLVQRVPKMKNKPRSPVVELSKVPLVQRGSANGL

[13] = target: Fibroblast growth factor receptor 1 (Homo sapiens) (UniProt P11362)
Fibroblast growth factor receptor 1 (Homo sapiens), sequence (P11362 22-822 limits assumed): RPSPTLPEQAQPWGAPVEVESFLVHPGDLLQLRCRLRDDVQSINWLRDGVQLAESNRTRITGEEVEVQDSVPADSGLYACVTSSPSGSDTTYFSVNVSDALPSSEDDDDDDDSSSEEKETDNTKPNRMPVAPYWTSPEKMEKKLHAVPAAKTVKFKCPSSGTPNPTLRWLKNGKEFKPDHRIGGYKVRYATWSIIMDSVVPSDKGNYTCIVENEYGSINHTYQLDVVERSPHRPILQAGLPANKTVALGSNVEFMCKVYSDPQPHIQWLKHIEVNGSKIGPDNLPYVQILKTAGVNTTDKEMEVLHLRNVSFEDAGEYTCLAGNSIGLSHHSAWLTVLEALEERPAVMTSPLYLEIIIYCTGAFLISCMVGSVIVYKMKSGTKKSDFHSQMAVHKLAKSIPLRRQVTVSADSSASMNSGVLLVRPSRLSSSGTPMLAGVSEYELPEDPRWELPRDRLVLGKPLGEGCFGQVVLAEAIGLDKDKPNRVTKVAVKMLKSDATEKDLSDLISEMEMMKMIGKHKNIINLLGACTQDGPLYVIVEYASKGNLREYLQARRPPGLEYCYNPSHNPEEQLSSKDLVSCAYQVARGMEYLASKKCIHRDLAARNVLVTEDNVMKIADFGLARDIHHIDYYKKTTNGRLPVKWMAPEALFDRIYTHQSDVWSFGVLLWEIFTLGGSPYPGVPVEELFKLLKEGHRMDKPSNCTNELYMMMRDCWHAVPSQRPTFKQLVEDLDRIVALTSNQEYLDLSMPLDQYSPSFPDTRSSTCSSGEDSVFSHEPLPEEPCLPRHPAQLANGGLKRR

[14] = target: Mitogen-activated protein kinase 1 (Homo sapiens) (UniProt P28482)
[15] = target: T4, Serine/threonine-protein kinase Sgk3 (Homo sapiens) (UniProt Q96BR1)
T4 sequence (whole entry): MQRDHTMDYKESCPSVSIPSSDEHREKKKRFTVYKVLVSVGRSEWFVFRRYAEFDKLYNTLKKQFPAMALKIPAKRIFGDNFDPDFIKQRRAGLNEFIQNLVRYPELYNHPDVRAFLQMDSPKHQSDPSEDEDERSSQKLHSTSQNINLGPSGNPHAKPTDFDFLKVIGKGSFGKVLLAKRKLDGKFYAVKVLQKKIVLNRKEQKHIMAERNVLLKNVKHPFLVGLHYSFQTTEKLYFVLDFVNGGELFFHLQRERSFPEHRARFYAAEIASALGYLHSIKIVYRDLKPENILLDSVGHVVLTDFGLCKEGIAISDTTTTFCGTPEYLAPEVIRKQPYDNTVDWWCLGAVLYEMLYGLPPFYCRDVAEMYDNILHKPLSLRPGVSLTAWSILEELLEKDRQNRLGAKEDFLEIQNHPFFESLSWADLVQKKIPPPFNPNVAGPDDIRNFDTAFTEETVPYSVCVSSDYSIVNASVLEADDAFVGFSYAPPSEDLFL

[16] = target: Mitogen-activated protein kinase kinase kinase 9 (Homo sapiens) (UniProt P80192)
[17] = target: Myosin light chain kinase, smooth muscle (Homo sapiens) (UniProt Q15746)
[18] = Compound concentration 1000.0 nM
[19] = Compound concentration 100.0 nM

Ribosomal protein S6 kinase alpha-2 (Homo sapiens), sequence (Q15349 whole entry): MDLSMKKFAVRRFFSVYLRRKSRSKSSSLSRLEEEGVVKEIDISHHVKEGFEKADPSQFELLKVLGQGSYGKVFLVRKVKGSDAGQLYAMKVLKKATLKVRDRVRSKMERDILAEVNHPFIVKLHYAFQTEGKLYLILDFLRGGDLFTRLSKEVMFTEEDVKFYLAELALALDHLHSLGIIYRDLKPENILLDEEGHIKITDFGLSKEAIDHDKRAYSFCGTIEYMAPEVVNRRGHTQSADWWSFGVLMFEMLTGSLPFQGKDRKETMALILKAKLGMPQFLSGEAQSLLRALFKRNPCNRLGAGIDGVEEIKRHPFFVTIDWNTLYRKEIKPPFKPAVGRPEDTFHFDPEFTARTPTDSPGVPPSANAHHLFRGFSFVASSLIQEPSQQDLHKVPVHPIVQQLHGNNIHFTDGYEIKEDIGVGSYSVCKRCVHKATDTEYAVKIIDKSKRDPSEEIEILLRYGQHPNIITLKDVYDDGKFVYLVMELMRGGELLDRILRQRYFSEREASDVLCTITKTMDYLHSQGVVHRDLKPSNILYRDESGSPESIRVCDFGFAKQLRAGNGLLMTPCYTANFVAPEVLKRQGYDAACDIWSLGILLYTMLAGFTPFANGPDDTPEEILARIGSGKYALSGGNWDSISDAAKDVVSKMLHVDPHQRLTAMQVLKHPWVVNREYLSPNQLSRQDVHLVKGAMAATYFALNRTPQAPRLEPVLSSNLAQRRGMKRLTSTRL
Phosphatidylinositol 5-phosphate 4-kinase type-2 beta (Homo sapiens), sequence (P78356 whole entry): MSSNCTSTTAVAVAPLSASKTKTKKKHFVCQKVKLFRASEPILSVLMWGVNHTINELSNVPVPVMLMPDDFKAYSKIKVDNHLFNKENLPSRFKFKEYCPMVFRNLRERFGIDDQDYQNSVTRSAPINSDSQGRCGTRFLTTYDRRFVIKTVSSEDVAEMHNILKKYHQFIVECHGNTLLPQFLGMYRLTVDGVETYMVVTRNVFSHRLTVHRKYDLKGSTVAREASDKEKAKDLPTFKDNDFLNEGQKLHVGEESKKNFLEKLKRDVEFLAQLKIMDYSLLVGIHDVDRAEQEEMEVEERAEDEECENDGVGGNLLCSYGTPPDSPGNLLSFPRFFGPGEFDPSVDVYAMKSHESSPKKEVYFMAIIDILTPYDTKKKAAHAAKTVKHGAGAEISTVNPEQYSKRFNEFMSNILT

C[C@@H]1CN(c2cc(-c3nn(C)c4ccc(OC5(C)CC5)cc34)ncn2)C[C@H](C)O1 [MLi-2-NC]
inactive: residual activity [1, 18] 86% | residual activity [2, 18] 88% | residual activity [3, 18] 92% | residual activity [4, 18] 84% | residual activity [5, 18] 91% | residual activity [6, 18] 84% | inhibition [7] -3.6% | residual activity [8, 18] 100% | residual activity [9, 18] 100% | residual activity [10, 18] 81% | residual activity [11, 18] 100% | residual activity [12, 18] 68% | residual activity [13, 18] 100% | residual activity [14, 18] 100% | residual activity [15, 18] 67% | residual activity [16, 18] 100% | residual activity [17, 18] 64%

C[C@@H]1CN(c2cc(-c3n[nH]c4ccc(OC5(C)CC5)cc34)ncn2)C[C@H](C)O1 [MLi-2]
inactive: residual activity [1, 19] 86% | residual activity [2, 19] 92% | residual activity [3, 19] 100% | residual activity [4, 19] 81% | residual activity [5, 19] 89% | residual activity [6, 19] 79% | inhibition [7] 3.49% | residual activity [8, 19] 100% | residual activity [9, 19] 95% | residual activity [10, 19] 100% | residual activity [11, 19] 89% | residual activity [12, 19] 86% | residual activity [13, 19] 100% | residual activity [14, 19] 98% | residual activity [15, 19] 84% | residual activity [16, 19] 100% | residual activity [17, 19] 56%
